From US9220411B2, “In-vivo optical imaging method including analysis of dynamic images” (THE GENERAL HOSPITAL CORPORATION, priority 2006, dated 2015)

Assay: Dynamic in-vivo fluorescence imaging of dye biodistribution after tail vein injection
Parameters: species or system mouse
From the text: FIG. 1 illustrates one embodiment of a fluorescent dynamic optical imaging system 10 for imaging small animals such as mice. The imaging system 10 includes an optical detector 16 which is operable to acquire various images of the mouse. The imaging system 10 also includes a processor and display device 11 which is operable to generate and display other images of the mouse.
The system 10 also includes an imaging platform 12 for supporting a mouse in a desired arrangement, such as in a prone position or a supine position. In a preferred embodiment, mirrors 14 are arranged at 45 degree angles with respect to the imaging platform such that multiple views of the mouse, i.e., a top and/or bottom view, and side views of the mouse, are within the field of view of the optical detector 16, which is arranged above the imaging platform 12. Other embodiments can include other arrangements of optical detector 16 and mirrors to provide other views of the mouse. In one embodiment, the optical detector 16 is a cooled 14 bit charge coupled device (CCD) camera including a relay lens 19 and the field of view is approximately 9 cm by 9 cm. Thus, although the camera produces 2D images, these are “enhanced” 2D images since multiple views of the mouse are obtained.
Bifurcated liquid light guides 25 can be used to deliver light from the sources 18A, 18B to shine on the mouse. Other means can also be used. The light sources 18A, 18B and any corresponding filter elements are selected to have desired characteristics according to the optical contrast substances to be used in the imaging process. For example, when using a fluorescent dye such as indocyanine green (ICG) dye, light source 18A can include two laser diodes (160 mW total) to provide excitation light at 785 nm to excite the ICG dye. When using a fluorescent dye such as Dextran Texas Red dye, light source 18B can be a halogen light source, and a motorized filter wheel having a plurality of filter elements can be used to provide filtered light at a desired excitation wavelength range of 570 nm plus or minus 20 nm to excite the Dextran Texas Red dye. The respective light sources can be controlled by an electronic shutter in the 570 nm light path, or digital modulation of the laser diodes to allow synchronization of illumination with the filter elements, tunable filter, and image acquisition.
At process block 34, a second optical contrast substance is introduced or activated in the mouse. For example, a dye such as an ICG dye or a Dextran Texas Red dye can be used and can be injected into the tail vein of an anesthetized mouse. ICG dye is a good choice because it is widely available, clinically approved, and it excites and emits in the near infra-red (NIR) portion of the spectrum, which is advantageous in that light scatter is lower and penetration is higher at NIR wavelengths. In one embodiment, a dye consisting of 0.05 ml of 260 uM ICG dye (Cardiogreen, Fluka) is used. In another embodiment, […] of 360 uM of Dextran Texas Red dye (70,000 MW, Invitrogen) can be used.
At process block 38, a time series of anatomical image data sets of the second optical contrast substance is acquired using the optical detector, preferably while the animal is in the same desired arrangement. This should preferably be performed right after the second optical contrast is introduced. If the second optical contrast agent is a fluorescent dye, a light source having the appropriate spectral characteristics is applied to excite the fluorescent dye. […]

## CC1(C)C(/C=C/C=C/C=C/C=C2\N(CCCCS(=O)(=O)O)c3ccc4ccccc4c3C2(C)C)=[N+](CCCCS(=O)(=O)[O-])c2ccc3ccccc3c21 [ICG, indocyanine green]
mouse, longer timescales (25 minutes), preliminary data
  uptake by adipose tissue: late uptake by adipose tissue, remaining high after 25 minutes
mouse, longer timescales, preliminary data
  uptake by the liver: rapid and sustained uptake by the liver
Prone mouse, by 117 seconds after injection
  distribution of dye in the body: distributed fairly diffusely throughout the mouse
Prone mouse, tail vein injection, early images (first 15 seconds), after the lung phase
  fluorescence signal, next organ distribution: bright signal is seen in the brain, kidneys, spleen and spine
Prone mouse, tail vein injection, early images (first 15 seconds), initial circulation
  fluorescence signal, initial organ distribution: initially the lungs are bright
